Test results reported in patent US20080269343A1, “GALENIC FORMULATIONS OF ORGANIC COMPOUNDS” (priority 2004, published 2008).

Legend:
[1] = Steady-state pharmacokinetics of aliskiren 300 mg alone, digoxin interaction study, Day 7 (Example 8); type: in vivo, human; conditions: 300 mg daily, Day 7, healthy volunteers N 21; for AUC / Cmax / Tmax: human, in vivo, oral, 300 mg
Method: The study employed was an open-label, two-period, multiple-dose design to evaluate the pharmacokinetic drug-drug interaction between digoxin and aliskiren when given alone or in combination to healthy volunteers. A total of 22 healthy volunteers were enrolled into the study. The subjects were admitted to the study center at least 24 hours prior to the initial dosing of aliskiren for baseline evaluation. If subjects met all eligibility criteria at baseline, they were randomized into the study and confined to the clinic on days 1-7 and days 17-33. All study medications were taken under fasted condition. The study was completed with the end of study evaluations on Day 34, after the last blood sample was collected.
In period 1 (Days 1-7), subjects received a single 300 mg daily dose of aliskiren for 7 days. Period 1 was followed by a ten (10) day washout period. In period 2, subjects received a single 0.25 mg daily dose of digoxin for 9 days (Days 18-26) and aliskiren 300 mg once a day with a single 0.25 mg daily dose of digoxin co-administered for 7 days (Days 27-33).
Pharmacokinetic blood sampling for aliskiren alone occurred on Day 7 up to 24 hours post dose (5-mL blood samples were collected into lithium heparin tubes on Day 7 of the study at pre-dose, 0.5, 1, 2, 3, 4, 6, 8, 12, 16 and 24 hours after dosing).

[2] = Ranges of arithmetic mean plasma pharmacokinetic parameters provided by the 300 mg solid oral dosage form (summary of the studies); type: in vivo; conditions: human, range of study means
Method: For example, the present invention provides a solid oral dosage form comprising about 300 mg of aliskiren free base, or a respective amount of a pharmaceutically acceptable salt thereof, and a carrier medium, said dosage form providing an arithmetic mean maximum plasma concentration of aliskiren ranging from about 186 to about 394 ng/mL between about 0.25 and about 6 hours following administration of a single dosage of said dosage form.
Furthermore, the present invention provides a solid oral dosage form comprising about 300 mg aliskiren free base, or a respective amount of a pharmaceutically acceptable salt thereof, and a carrier medium, said dosage form providing an arithmetic mean AUC0-96 of aliskiren ranging from about 1480 to about 1859 ng·h/mL following administration of a single dosage of said dosage form. […]
The above description fully discloses the invention including preferred embodiments thereof. […] Arithmetic means for Cmax are calculated using the actual time points when the Cmax is observed whereas for the mean concentration versus time plots the nominal time values are employed.

[3] = Steady-state pharmacokinetics of aliskiren 300 mg alone, furosemide interaction study, Day 13 (Example 6); type: in vivo, human; conditions: 300 mg daily, Day 13, healthy volunteers N 21; for AUC / Cmax / Tmax: both sexes, human, in vivo, oral, 300 mg
Method: An open-label, 2-period study in healthy subjects was carried out to evaluate the pharmacokinetic drug-drug interaction between furosemide and aliskiren when given alone or in combination. A total of 22 healthy male and female volunteers enrolled and 21 completed all study procedures and treatments. The subjects were admitted to the study center for at least 12 hours prior to the initial dosing for baseline evaluation, and confined to the clinic for entire study. Subjects were given an end-of-study evaluation on Day 17 approximately 24 h after the last treatment of aliskiren. For all treatment periods, subjects fasted for a minimum of 10 hours pre-dose to 4 hours post-dose. Subjects were considered to have completed the study when all safety and pharmacokinetic evaluations had been completed.
In Period 1 (Study Days 1-3), subjects received a single 20 mg daily dose of furosemide. In Period 2 (Study Days 7-16), subjects received 300 mg of aliskiren once a day for a total of 10 days with a single 20 mg daily dose of furosemide co-administered for three days (Study Days 14-16), starting Day 14 of the study. There was a three day wash out between Period 1 and 2 (Study Days 4-6).
Pharmacokinetic blood sampling for aliskiren alone occurred on Study Day 13 up to 24 hours post-dose (5-mL blood samples were collected into lithium heparin tubes on Day 13 of the study at pre-dose, 0.5, 1, 2, 4, 6, 8, 12, 16 and 24 hours after dosing).

[4] = Hygroscopicity of the drug substance; type: physicochemical

Q: For `COCCCOc1cc(C[C@@H](C[C@H](N)[C@@H](O)C[C@H](C(=O)NCC(C)(C)C(N)=O)C(C)C)C(C)C)ccc1OC` [aliskiren, 2(S),4(S),5(S),7(S)—N-(3-amino-2,2-dimethyl-3-oxopropyl)-2,7-di(1-methylethyl)-4-hydroxy-5-amino-8-[4-methoxy-3-(3-methoxy-propoxy)phenyl]-octanamide], which “Cmin^SS” value ([1]; Geometric Mean) is on record?
A: 25.4 ng/mL

Q: What about the AUCτ ([1]; Max) of the same compound?
A: 2710 ng·h/mL

Q: And the “Cmax^SS” value ([1]; Max)?
A: 478 ng/mL

Q: And the “Cmin^SS” value ([1]; Max)?
A: 41.5 ng/mL

Q: What about the “tmax^SS” value ([1]; Max) of the same compound?
A: 6.00 h

Q: What about the “Cmin^SS” value ([1]; Median) of the same compound?
A: 24.1 ng/mL

Q: And the AUCτ ([1]; Min)?
A: 943 ng·h/mL

Q: What about the “Cmax^SS” value ([1]; Min) of the same compound?
A: 131 ng/mL

Q: What about the “Cmin^SS” value ([1]; Min) of the same compound?
A: 13.1 ng/mL

Q: And the “tmax^SS” value ([1]; Min)?
A: 0.50 h

Q: And the “Cmin^SS” value ([1]; arithmetic mean)?
A: 26.5 ng/mL

Q: And the AUC ([1]; Geometric Mean)?
A: 1600 ng·h/mL

Q: What about the Cmax ([1]; Geometric Mean) of the same compound?
A: 246 ng/mL

Q: What about the Tmax ([1]; Geometric Mean) of the same compound?
A: 1.39 h

Q: What about the AUC ([1]; Median) of the same compound?
A: 1560 ng·h/mL

Q: And the Cmax ([1]; Median)?
A: 234 ng/mL

Q: And the Tmax ([1]; Median)?
A: 1 h

Q: What about the AUC ([1]; arithmetic mean) of the same compound?
A: 1670 ng·h/mL

Q: What about the Cmax ([1]; arithmetic mean) of the same compound?
A: 261 ng/mL

Q: And the Tmax ([1]; arithmetic mean)?
A: 1.93 h

Q: And the AUC ([2]; about 300 mg every 24 hours, steady state, read-out: arithmetic mean AUC0-τ of aliskiren)?
A: 1670 to 2520 ng·h/mL

Q: What about the AUC(0-t) ([2]; single dosage of about 300 mg free base, read-out: arithmetic mean AUC0-96 of aliskiren) of the same compound?
A: 1480 to 1860 ng·h/mL

Q: What about the AUCτ ([3]; Max) of the same compound?
A: 3973 ng·h/mL

Q: And the “Cmax^SS” value ([3]; Max)?
A: 652 ng/mL

Q: And the “Cmin^SS” value ([3]; Max)?
A: 52.30 ng/mL

Q: What about the “tmax^SS” value ([3]; Max) of the same compound?
A: 6.0 h

Q: What about the “Cmin^SS” value ([3]; Median) of the same compound?
A: 24.40 ng/mL

Q: What about the AUCτ ([3]; Min) of the same compound?
A: 471 ng·h/mL

Q: What about the “Cmax^SS” value ([3]; Min) of the same compound?
A: 116 ng/mL

Q: What about the “Cmin^SS” value ([3]; Min) of the same compound?
A: 6.26 ng/mL

Q: And the “tmax^SS” value ([3]; Min)?
A: 0.5 h

Q: And the “Cmin^SS” value ([3]; arithmetic mean)?
A: 25.80 ng/mL

Q: And the AUC ([3]; Median)?
A: 1810 ng·h/mL

Q: What about the Cmax ([3]; Median) of the same compound?
A: 284 ng/mL

Q: And the Tmax ([3]; Median)?
A: 1 h

Q: And the AUC ([3]; arithmetic mean)?
A: 1890 ng·h/mL

Q: What about the Cmax ([3]; arithmetic mean) of the same compound?
A: 334 ng/mL

Q: And the Tmax ([3]; arithmetic mean)?
A: 1.5 h

Q: What about the hygroscopicity [4] of the same compound?
A: highly hygroscopic
